Data from patent US20230085307A1, “PYRIDAZINONE COMPOUND AND HERBICIDE” (NISSAN CHEMICAL CORPORATION, priority 2019, published 2023).

Key:
lambsquarters [1] = test: Test Example 4: herbicidal effect by soil treatment (Table 19, symbol O); assay type: in vivo, lambsquarters (Chenopodium album); conditions: amount of applied herbicide 320 g/ha
Procedure, shortened: (§1)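 Pre-emergence style soil spray: seeds under ~1.5 cm sterilized diluvial soil received a uniform coat of emulsion diluted to the predetermined herbicide amount. Greenhouse 25–30° C; readout at week three on previously defined criteria.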

oval-leafed pondweed [2] = test: Test Example 2: herbicidal activity, application during weed generation under submerged conditions (Table 17, symbol C); assay type: in vivo, oval-leafed pondweed (Monochoria vaginalis); conditions: AAH 320 g/ha; application during weed generation, submerged conditions
Procedure, shortened: (§2)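 Steps: fill Wagner pots with alluvial soil; add water to give 4 cm depth; sow the species mixed; grow under glass at 25–30° C.; at 1–2 leaves apply water-diluted emulsion formulation to the water surface at a fixed herbicide amount; score after 3 weeks.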

lambsquarters [3] = test: Test Example 5: herbicidal effect by foliage application, plastic box (Table 20, symbol O); assay type: in vivo, lambsquarters (Chenopodium album); conditions: foliage application, 320 g/ha, three weeks after application
Procedure, shortened: (§3)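 Plants were sown into sterilized diluvial soil under about 1.5 cm cover and kept in a greenhouse at 25° C. to 30° C. Fourteen days on, foliage received an even spray of the diluted emulsion. Herbicidal or crop effect was judged three weeks afterwards.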

velvetleaf [4] = test: Test Example 5: herbicidal effect by foliage application, plastic box (Table 20, symbol M); assay type: in vivo, velvetleaf (Abutilon theophrasti); conditions: foliage application, 320 g/ha, three weeks after application
Procedure, shortened: as §3

green foxtail [5] = test: Test Example 5: herbicidal effect by foliage application, plastic box (Table 20, symbol G); assay type: in vivo, green foxtail (Setaria viridis); conditions: foliage application, 320 g/ha, three weeks after application
Procedure, shortened: as §3

redroot pigweed [6] = test: Test Example 5: herbicidal effect by foliage application, plastic box (Table 20, symbol N); assay type: in vivo, redroot pigweed (Amaranthus retroflexus); conditions: foliage application, 320 g/ha, three weeks after application
Procedure, shortened: as §3

barnyard grass [7] = test: Test Example 3: herbicidal effect by foliage application, Wagner pot (Table 18, symbol H); assay type: in vivo, barnyard grass (Echinochloa crus-galli); conditions: for herbicidal effect on barnyard grass (H): 320 g/ha
Procedure, shortened: (§4)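 Plants were sown in alluvial soil held under 0.1–0.5 cm standing water and grown 14 days in a greenhouse at 25–30 °C. An emulsifiable formulation, water-diluted to the set dose, was then sprayed onto the foliage, and effects were scored three weeks later using previously defined criteria.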

green foxtail [8] = test: Test Example 4: herbicidal effect by soil treatment (Table 19, symbol G); assay type: in vivo, green foxtail (Setaria viridis); conditions: amount of applied herbicide 320 g/ha
Procedure, shortened: as §1

redroot pigweed [9] = test: Test Example 4: herbicidal effect by soil treatment (Table 19, symbol N); assay type: in vivo, redroot pigweed (Amaranthus retroflexus); conditions: amount of applied herbicide 320 g/ha
Procedure, shortened: as §1

velvetleaf [10] = test: Test Example 4: herbicidal effect by soil treatment (Table 19, symbol M); assay type: in vivo, velvetleaf (Abutilon theophrasti); conditions: amount of applied herbicide 320 g/ha
Procedure, shortened: as §1

barnyard grass [11] = test: Test Example 4: herbicidal effect by soil treatment (Table 19, symbol H); assay type: in vivo, barnyard grass (Echinochloa crus-galli); conditions: amount of applied herbicide 320 g/ha
Procedure, shortened: as §1

Japanese bulrush [12] = test: Test Example 2: herbicidal activity, application during weed generation under submerged conditions (Table 17, symbol B); assay type: in vivo, Japanese bulrush (Schoenoplectus juncoides); conditions: AAH 320 g/ha; application during weed generation, submerged conditions
Procedure, shortened: as §2

rice flat sedge = test: Test Example 3: herbicidal effect by foliage application, Wagner pot (Table 18, symbol E); assay type: in vivo, rice flat sedge (Cyperus iria); conditions: for herbicidal effect on rice flat sedge (E): 320 g/ha
Procedure, shortened: as §4

late watergrass [13] = test: Test Example 1: herbicidal activity, application before weed generation under submerged conditions (Table 16, symbol A); assay type: in vivo, late watergrass (Echinochloa oryzicola); conditions: amount of applied herbicide 320 g/ha
Procedure, shortened: (§5)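 Submerged Wagner pots (alluvial soil, 4 cm water) sown with weed seeds and planted with 2.5-leaf rice seedlings; emulsifiable concentrate diluted in water applied to water surface on sowing day. Held in greenhouse at 25-30 °C; injury scored 0-5 by herbicidal rate after three weeks.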

oval-leafed pondweed [14] = test: Test Example 1: herbicidal activity, application before weed generation under submerged conditions (Table 16, symbol C); assay type: in vivo, oval-leafed pondweed (Monochoria vaginalis); conditions: amount of applied herbicide 320 g/ha
Procedure, shortened: as §5

southern crabgrass [15] = test: Test Example 4: herbicidal effect by soil treatment (Table 19, symbol F); assay type: in vivo, southern crabgrass (Digitaria ciliaris); conditions: amount of applied herbicide 320 g/ha
Procedure, shortened: as §1

Japanese bulrush [16] = test: Test Example 1: herbicidal activity, application before weed generation under submerged conditions (Table 16, symbol B); assay type: in vivo, Japanese bulrush (Schoenoplectus juncoides); conditions: amount of applied herbicide 320 g/ha
Procedure, shortened: as §5

Chinese sprangletop = test: Test Example 3: herbicidal effect by foliage application, Wagner pot (Table 18, symbol D); assay type: in vivo, chinese sprangletop (Leptochloa chinensis); conditions: for herbicidal effect on Chinese sprangletop (D): 320 g/ha
Procedure, shortened: as §4

southern crabgrass [17] = test: Test Example 5: herbicidal effect by foliage application, plastic box (Table 20, symbol F); assay type: in vivo, southern crabgrass (Digitaria ciliaris); conditions: foliage application, 320 g/ha, three weeks after application
Procedure, shortened: as §3

late watergrass [18] = test: Test Example 2: herbicidal activity, application during weed generation under submerged conditions (Table 17, symbol A); assay type: in vivo, late watergrass (Echinochloa oryzicola); conditions: AAH 320 g/ha; application during weed generation, submerged conditions
Procedure, shortened: as §2

wild oat = test: Test Example 5: herbicidal effect by foliage application, plastic box (Table 20, symbol I); assay type: in vivo, wild oat (Avena fatua); conditions: foliage application, 320 g/ha, three weeks after application
Procedure, shortened: as §3

persian speedwell = test: Test Example 5: herbicidal effect by foliage application, plastic box (Table 20, symbol R); assay type: in vivo, Persian speedwell (Veronica persica); conditions: foliage application, 320 g/ha, three weeks after application
Procedure, shortened: as §3

blackgrass = test: Test Example 5: herbicidal effect by foliage application, plastic box (Table 20, symbol J); assay type: in vivo, blackgrass (Alopecurus myosuroides); conditions: foliage application, 320 g/ha, three weeks after application
Procedure, shortened: as §3

barnyard grass [19] = test: Test Example 5: herbicidal effect by foliage application, plastic box (Table 20, symbol H); assay type: in vivo, barnyard grass (Echinochloa crus-galli); conditions: foliage application, 320 g/ha, three weeks after application
Procedure, shortened: as §3

windgrass = test: Test Example 5: herbicidal effect by foliage application, plastic box (Table 20, symbol L); assay type: in vivo, windgrass (Apera spica-venti); conditions: foliage application, 320 g/ha, three weeks after application
Procedure, shortened: as §3

Italian ryegrass = test: Test Example 5: herbicidal effect by foliage application, plastic box (Table 20, symbol K); assay type: in vivo, Italian ryegrass (Lolium multiflorum); conditions: foliage application, 320 g/ha, three weeks after application
Procedure, shortened: as §3

[20] = amount of applied herbicide 320 g/ha

| SMILES | herbicidal effect rating, C: oval-leafed pondweed (oval-leafed pondweed [2]) | herbicidal effect rating, B: Japanese bulrush (Japanese bulrush [12]) | Herbicidal effect, A: late watergrass (late watergrass [13]) | Herbicidal effect, C: oval-leafed pondweed (oval-leafed pondweed [14]) | Herbicidal effect, B: Japanese bulrush (Japanese bulrush [16]) | herbicidal effect rating, A: late watergrass (late watergrass [18]) | herbicidal effect on lambsquarters (O) (lambsquarters [3]) | herbicidal effect on wild oat (I) (wild oat) | herbicidal effect on velvetleaf (M) (velvetleaf [4]) | herbicidal effect on persian speedwell (R) (persian speedwell) | herbicidal effect on blackgrass (J) (blackgrass) | herbicidal effect on green foxtail (G) (green foxtail [5]) | herbicidal effect on barnyard grass (H) (barnyard grass [19]) | herbicidal effect on barnyard grass (H) (barnyard grass [7]) | herbicidal effect on windgrass (L) (windgrass) | herbicidal effect on Italian ryegrass (K) (Italian ryegrass) | herbicidal effect on rice flat sedge (E) (rice flat sedge) | herbicidal effect on Chinese sprangletop (D) (Chinese sprangletop) | herbicidal effect on southern crabgrass (F) (southern crabgrass [17]) | further results |
| --- | --- | --- | --- | --- | --- | --- | --- | --- | --- | --- | --- | --- | --- | --- | --- | --- | --- | --- | --- | --- |
| COc1ccc2sc(-c3ccc(Cl)cc3)c(-c3c(O)c(C)nn(C)c3=O)c2c1 [2-450] | 0 (Herbicidal rate of 5% or less (almost no effect)) | 2 (Herbicidal rate of 20% or more and less than 40%) | 2 (Herbicidal rate of 20% or more and less than 40%) | 0 (Herbicidal rate of 5% or less (almost no effect)) | 3 (Herbicidal rate of 40% or more and less than 70%) | 3 (Herbicidal rate of 40% or more and less than 70%) |  |  |  |  |  |  |  |  |  |  |  |  |  | herbicidal effect, O: lambsquarters (lambsquarters [1]): 2 (Herbicidal rate of 20% or more and less than 40%); O: lambsquarters, herbicidal effect grade (lambsquarters [3]): 5 (Herbicidal rate of 90% or more (almost completely withered)); M: velvetleaf, herbicidal effect grade (velvetleaf [4]): 5 (Herbicidal rate of 90% or more (almost completely withered)); G: green foxtail, herbicidal effect grade (green foxtail [5]): 0 (Herbicidal rate of 5% or less (almost no effect)); N: redroot pigweed, herbicidal effect grade (redroot pigweed [6]): 5 (Herbicidal rate of 90% or more (almost completely withered)); herbicidal effect on H: barnyard grass (barnyard grass [7]; [20]): 3 (Herbicidal rate of 40% or more and less than 70%); herbicidal effect, G: green foxtail (green foxtail [8]): 0 (Herbicidal rate of 5% or less (almost no effect)); herbicidal effect, N: redroot pigweed (redroot pigweed [9]): 3 (Herbicidal rate of 40% or more and less than 70%); herbicidal effect, M: velvetleaf (velvetleaf [10]): 0 (Herbicidal rate of 5% or less (almost no effect)); herbicidal effect, H: barnyard grass (barnyard grass [11]): 0 (Herbicidal rate of 5% or less (almost no effect)); herbicidal effect on E: rice flat sedge (rice flat sedge; [20]): 5 (Herbicidal rate of 90% or more (almost completely withered)); herbicidal effect, F: southern crabgrass (southern crabgrass [15]): 0 (Herbicidal rate of 5% or less (almost no effect)); herbicidal effect on D: Chinese sprangletop (Chinese sprangletop; [20]): 0 (Herbicidal rate of 5% or less (almost no effect)); F: southern crabgrass, herbicidal effect grade (southern crabgrass [17]): 0 (Herbicidal rate of 5% or less (almost no effect)) |
| CCCC(=O)Oc1c(C)nn(C)c(=O)c1-c1c(-c2ccccc2OC)sc2cc(C)c(C)cc12 [5-091] | 3 (Herbicidal rate of 40% or more and less than 70%) | 2 (Herbicidal rate of 20% or more and less than 40%) | 3 (Herbicidal rate of 40% or more and less than 70%) | 3 (Herbicidal rate of 40% or more and less than 70%) | 3 (Herbicidal rate of 40% or more and less than 70%) | 3 (Herbicidal rate of 40% or more and less than 70%) | 3 (Herbicidal rate of 40% or more and less than 70%) | 0 (Herbicidal rate of 5% or less (almost no effect)) | 4 (Herbicidal rate of 70% or more and less than 90%) | 3 (Herbicidal rate of 40% or more and less than 70%) | 4 (Herbicidal rate of 70% or more and less than 90%) | 3 (Herbicidal rate of 40% or more and less than 70%) | 3 (Herbicidal rate of 40% or more and less than 70%) | 4 (Herbicidal rate of 70% or more and less than 90%) | 4 (Herbicidal rate of 70% or more and less than 90%) | 4 (Herbicidal rate of 70% or more and less than 90%) | 3 (Herbicidal rate of 40% or more and less than 70%) | 4 (Herbicidal rate of 70% or more and less than 90%) | 2 (Herbicidal rate of 20% or more and less than 40%) |  |
| CCCC(=O)Oc1c(C)nn(C)c(=O)c1-c1c(-c2ccc(F)cc2OC)sc2cc(C)c(C)cc12 [5-102] | 2 (Herbicidal rate of 20% or more and less than 40%) | 3 (Herbicidal rate of 40% or more and less than 70%) | 4 (Herbicidal rate of 70% or more and less than 90%) | 2 (Herbicidal rate of 20% or more and less than 40%) | 3 (Herbicidal rate of 40% or more and less than 70%) | 3 (Herbicidal rate of 40% or more and less than 70%) | 3 (Herbicidal rate of 40% or more and less than 70%) | 0 (Herbicidal rate of 5% or less (almost no effect)) | 3 (Herbicidal rate of 40% or more and less than 70%) | 3 (Herbicidal rate of 40% or more and less than 70%) | 3 (Herbicidal rate of 40% or more and less than 70%) | 0 (Herbicidal rate of 5% or less (almost no effect)) | 1 (Herbicidal rate of 5% or more and less than 20%) | 4 (Herbicidal rate of 70% or more and less than 90%) | 2 (Herbicidal rate of 20% or more and less than 40%) | 3 (Herbicidal rate of 40% or more and less than 70%) | 3 (Herbicidal rate of 40% or more and less than 70%) | 4 (Herbicidal rate of 70% or more and less than 90%) | 1 (Herbicidal rate of 5% or more and less than 20%) |  |
| Cc1nn(C)c(=O)c(-c2c(-c3ccc(OC(F)(F)F)cc3)sc3cc(Cl)c(Cl)cc23)c1O [5-107] | 3 (Herbicidal rate of 40% or more and less than 70%) | 3 (Herbicidal rate of 40% or more and less than 70%) | 3 (Herbicidal rate of 40% or more and less than 70%) | 0 (Herbicidal rate of 5% or less (almost no effect)) | 0 (Herbicidal rate of 5% or less (almost no effect)) | 3 (Herbicidal rate of 40% or more and less than 70%) | 4 (Herbicidal rate of 70% or more and less than 90%) |  | 3 (Herbicidal rate of 40% or more and less than 70%) |  |  | 2 (Herbicidal rate of 20% or more and less than 40%) | 3 (Herbicidal rate of 40% or more and less than 70%) | 3 (Herbicidal rate of 40% or more and less than 70%) |  |  | 0 (Herbicidal rate of 5% or less (almost no effect)) | 0 (Herbicidal rate of 5% or less (almost no effect)) | 2 (Herbicidal rate of 20% or more and less than 40%) |  |
